Source: patent US20260184710A1, “CASITAS B-LINEAGE LYMPHOMA PROTOONCOGENE B (CBL-B) DEGRADING COMPOUNDS AND ASSOCIATED METHODS OF USE” (Arvinas Operations, Inc., priority 2022, published 2026)

Assays:
[1] = target: T1, Cbl-b (Homo sapiens, UniProt Q13191); assay: Cbl-b Degradation Method B (Nano-Glo HiBiT lytic detection); assay type: cell-based; settings: Cbl-b-HiBit KI Jurkat Cells, incubated at least 6-24 hours; for DC50: half maximal degradation, read-out: Cbl-b Degredation Method B IC50; for Dmax / Cbl-b Degredation Method B Dmax (%): maximum degradation observed; for Dmax: read-out: Cbl-b Degredation Method B Dmax (%)
T1 construct: Cbl-b-HiBit KI Jurkat Cells were purchased from Promega; host or cells: Cbl-b-HiBiT knock-in Jurkat cells
In short: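 Cbl-b-HiBiT knock-in Jurkat cells (20,000/well) were treated after ~24 h plating with an 11-point 1:3 series for 6-24 h at 37° C. Remaining Cbl-b measured by Nano-Glo HiBiT lytic luminescence. DC50 and Dmax expressed as % of control.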

[2] = target: T1, Cbl-b; assay: Cbl-b Degradation Method A (FACS, anti-Cbl-b antibody staining); assay type: cell-based; settings: Cbl-b-HiBit KI Jurkat Cells, incubated at least 20 hours; for DC50: half maximal degradation, read-out: Cbl-b Degredation Method A IC50; for Dmax: Jurkat, maximum degradation observed, read-out: Cbl-b Degredation Method A Dmax (%)
In short: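 Cbl-b-HiBit KI Jurkat cells treated with compound for at least 20 h at 37 °C, then fixed, permeabilized and stained with anti-Cbl-b antibody plus anti-rabbit AF488 secondary. Cbl-b levels read by FACS; DC50 and Dmax (percent of control) derived.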

T1 sequence (Q13191 whole entry): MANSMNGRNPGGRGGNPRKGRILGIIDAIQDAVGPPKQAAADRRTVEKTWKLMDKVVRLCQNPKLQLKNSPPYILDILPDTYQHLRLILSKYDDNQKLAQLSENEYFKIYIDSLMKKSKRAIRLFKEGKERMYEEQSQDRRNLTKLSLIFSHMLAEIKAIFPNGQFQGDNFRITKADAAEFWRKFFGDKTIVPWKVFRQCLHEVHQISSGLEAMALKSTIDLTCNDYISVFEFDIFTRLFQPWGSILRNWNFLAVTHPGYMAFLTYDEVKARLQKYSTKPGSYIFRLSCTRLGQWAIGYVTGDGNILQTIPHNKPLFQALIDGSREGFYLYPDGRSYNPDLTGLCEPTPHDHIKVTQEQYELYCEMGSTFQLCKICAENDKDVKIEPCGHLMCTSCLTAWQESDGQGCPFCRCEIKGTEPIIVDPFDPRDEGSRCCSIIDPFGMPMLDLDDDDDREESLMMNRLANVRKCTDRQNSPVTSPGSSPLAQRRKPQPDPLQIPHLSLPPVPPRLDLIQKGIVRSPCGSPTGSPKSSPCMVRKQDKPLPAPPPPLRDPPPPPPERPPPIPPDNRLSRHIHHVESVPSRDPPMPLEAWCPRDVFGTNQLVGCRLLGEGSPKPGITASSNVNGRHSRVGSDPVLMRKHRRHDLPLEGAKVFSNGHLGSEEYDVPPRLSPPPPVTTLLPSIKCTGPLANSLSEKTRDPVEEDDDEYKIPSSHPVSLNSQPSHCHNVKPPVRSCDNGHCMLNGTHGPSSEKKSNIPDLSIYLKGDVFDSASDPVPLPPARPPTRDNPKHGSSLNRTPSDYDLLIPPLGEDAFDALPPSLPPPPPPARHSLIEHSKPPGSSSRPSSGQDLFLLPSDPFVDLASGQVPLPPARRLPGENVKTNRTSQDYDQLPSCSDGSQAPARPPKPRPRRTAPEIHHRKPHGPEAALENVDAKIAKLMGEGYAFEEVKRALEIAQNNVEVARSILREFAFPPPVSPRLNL

Row | DC50 [1] | Dmax [1] | DC50 [2] | Dmax [2] | Cbl-b Degredation Method B Dmax (%) [1] | Compound
1 | < 5 nM | < 35% | 5 to 50 nM | 35 to 70% | – | C[C@H]1C[C@@H](CN2CCC(CC3CCN(c4ccc5c(c4)C(=O)N(C4CCC(=O)NC4=O)C5=O)CC3)CC2)CN(Cc2cc3c(c(C(F)(F)F)c2)CN(c2cccc(C4(Cc5nncn5C)COC4)c2)C3=O)C1 (stereo partly drawn) [Example 93, 2-(2,6-dioxopiperidin-3-yl)-5-{4-[(1-{[(3S,5S)-5-methyl-1-{[2-(3-{3-[(4-methyl-4H-1,2,4-triazol-3-yl)methyl]oxetan-3-yl}phenyl)-3-oxo-7-(trifluoromethyl)-2,3-dihydro-1H-isoindol-5-yl]methyl}piperidin-3-yl]methyl}piperidin-4-yl)methyl]piperidin-1-yl}-2,3-dihydro-1H-isoindole-1,3-dione]
2 | < 5 nM | – | 5 to 50 nM | < 35% | C (C ≤ 35) | CC(C)n1c(=O)n(C2CCC(=O)NC2=O)c2cccc(N3CCC(O[C@H]4CC[C@H](CN5CC6(CCN(Cc7cc8c(c(C(F)(F)F)c7)CN(c7cccc([C@]9(Cc%10nncn%10C)C[C@@H](C#N)C9)c7)C8=O)CC6)C5)CC4)CC3)c21 (some centres unmarked) [Example 321, (1r,3r)-3-[(4-methyl-4H-1,2,4-triazol-3-yl)methyl]-3-(3-{1-oxo-6-[(2-{[(1r,4r)-4-({1-[1-(2,6-dioxopiperidin-3-yl)-2-oxo-3-(propan-2-yl)-2,3-dihydro-1H-1,3-benzodiazol-4-yl]piperidin-4-yl}oxy)cyclohexyl]methyl}-2,7-diazaspiro[3.5]nonan-7-yl)methyl]-4-(trifluoromethyl)-2,3-dihydro-1H-isoindol-2-yl}phenyl)cyclobutane-1-carbonitrile]
3 | < 5 nM | 35 to 70% | 5 to 50 nM | > 70% | – | Cc1cc(N2CCC(CN3CCC4(CC3)CN(c3cc5c(c(C(F)(F)F)c3)CN(c3cccc([C@]6(Cc7nncn7C)C[C@@H](C#N)C6)c3)C5=O)C4)CC2)c(F)c2c1C(=O)N(C1CCC(=O)NC1=O)C2 (some centres unmarked) [Example 171, (1r,3r)-3-(3-{6-[7-({1-[2-(2,6-dioxopiperidin-3-yl)-4-fluoro-7-methyl-1-oxo-2,3-dihydro-1H-isoindol-5-yl]piperidin-4-yl}methyl)-2,7-diazaspiro[3.5]nonan-2-yl]-1-oxo-4-(trifluoromethyl)-2,3-dihydro-1H-isoindol-2-yl}phenyl)-3-[(4-methyl-4H-1,2,4-triazol-3-yl)methyl]cyclobutane-1-carbonitrile]
4 | < 5 nM | > 70% | < 5 nM | > 70% | – | Cn1cnnc1CC1(c2cccc(-n3cc4c(C(F)(F)F)cc(CN5CCC[C@H](CN6CCN(C[C@H]7CC[C@@H](OC8CCN(c9ccc%10c(c9F)CN(C9CCC(=O)NC9=O)C%10=O)CC8)CC7)CC6)C5)cc4n3)c2)COC1 (stereo partly drawn) [Example 221, 3-[4-fluoro-1-oxo-5-(4-{[(1r,4r)-4-[(4-{[(3S)-1-{[2-(3-{3-[(4-methyl-4H-1,2,4-triazol-3-yl)methyl]oxetan-3-yl}phenyl)-4-(trifluoromethyl)-2H-indazol-6-yl]methyl}piperidin-3-yl]methyl}piperazin-1-yl)methyl]cyclohexyl]oxy}piperidin-1-yl)-2,3-dihydro-1H-isoindol-2-yl]piperidine-2,6-dione]
5 | > 500 nM | – | 50 to 500 nM | – | – | Cn1cnnc1CC1(c2cccc(N3Cc4c(cc(CN5CCC(COCCOc6ccc7c(c6)C(=O)N(C6CCC(=O)NC6=O)C7=O)CC5)cc4C(F)(F)F)C3=O)c2)COC1 (centres unmarked) [Example 87, 2-(2,6-dioxopiperidin-3-yl)-5-(2-((1-((2-(3-(3-((4-methyl-4H-1,2,4-triazol-3-yl)methyl)oxetan-3-yl)phenyl)-3-oxo-7-(trifluoromethyl)isoindolin-5-yl)methyl)piperidin-4-yl)methoxy)ethoxy)isoindoline-1,3-dione]
6 | < 5 nM | 35 to 70% | < 5 nM | > 70% | – | C[C@H]1CN(C[C@H]2CC[C@@H](OC3CCN(c4ccc5c(c4F)CN(C4CCC(=O)NC4=O)C5=O)CC3)CC2)CCN1Cc1cc2c(c(C(F)(F)F)c1)CN(c1cccc(C3(Cc4nncn4C)COC3)c1)C2=O (stereo partly drawn) [Example 194, 3-[4-fluoro-1-oxo-5-(4-{[(1r,4r)-4-{[(3S)-3-methyl-4-{[2-(3-{3-[(4-methyl-4H-1,2,4-triazol-3-yl)methyl]oxetan-3-yl}phenyl)-3-oxo-7-(trifluoromethyl)-2,3-dihydro-1H-isoindol-5-yl]methyl}piperazin-1-yl]methyl}cyclohexyl]oxy}piperidin-1-yl)-2,3-dihydro-1H-isoindol-2-yl]piperidine-2,6-dione]

Continued, molecule first:

Row | Compound | DC50 [1] | Dmax [1] | DC50 [2] | Dmax [2] | Cbl-b Degredation Method B Dmax (%) [1]
7 | Cn1cnnc1CC1(c2cccc(NC(=O)c3cc(CN4CCC[C@H](CN5CCC(CN6CCN(c7ccc8c(c7)C(=O)N(C7CCC(=O)NC7=O)C8=O)CC6)CC5)C4)nc(C4CC4)n3)c2)COC1 (stereo partly drawn) [Example 19, 2-cyclopropyl-6-[[(3R)-3-[[4-[[4-[2-(2,6-dioxo-3-piperidyl)-1,3-dioxo-isoindolin-5-yl]piperazin-1-yl]methyl]-1-piperidyl]methyl]-1-piperidyl]methyl]-N-[3-[3-[(4-methyl-1,2,4-triazol-3-yl)methyl]oxetan-3-yl]phenyl]pyrimidine-4-carboxamide] | < 5 nM | < 35% | 50 to 500 nM | – | –
8 | CC1c2cc(N3CCC(CN4CCC5(CC4)CN(c4cc6c(c(C(F)(F)F)c4)CN(c4cccc(C7(Cc8nncn8C)COC7)c4)C6=O)C5)CC3)ccc2C(=O)N1C1CCC(=O)NC1=O (centres unmarked) [Example 138, 3-{3-methyl-5-[4-({2-[2-(3-{3-[(4-methyl-4H-1,2,4-triazol-3-yl)methyl]oxetan-3-yl}phenyl)-3-oxo-7-(trifluoromethyl)-2,3-dihydro-1H-isoindol-5-yl]-2,7-diazaspiro[3.5]nonan-7-yl}methyl)piperidin-1-yl]-1-oxo-2,3-dihydro-1H-isoindol-2-yl}piperidine-2,6-dione] | < 5 nM | < 35% | 5 to 50 nM | 35 to 70% | –
9 | CC(C)n1c(=O)n(C2CCC(=O)NC2=O)c2cccc(N3CCC(O[C@H]4CC[C@H](CN5CC6(CN(Cc7cc8c(c(C(F)(F)F)c7)CN(c7cccc([C@]9(Cc%10nncn%10C)C[C@@H](C#N)C9)c7)C8=O)C6)C5)CC4)CC3)c21 (some centres unmarked) [Example 327, (1r,3r)-3-[(4-methyl-4H-1,2,4-triazol-3-yl)methyl]-3-(3-{1-oxo-6-[(6-{[(1r,4r)-4-({1-[1-(2,6-dioxopiperidin-3-yl)-2-oxo-3-(propan-2-yl)-2,3-dihydro-1H-1,3-benzodiazol-4-yl]piperidin-4-yl}oxy)cyclohexyl]methyl}-2,6-diazaspiro[3.3]heptan-2-yl)methyl]-4-(trifluoromethyl)-2,3-dihydro-1H-isoindol-2-yl}phenyl)cyclobutane-1-carbonitrile] | < 5 nM | – | 5 to 50 nM | 35 to 70% | C (C ≤ 35)
10 | Cn1cnnc1CC1(c2cccc(N3Cc4c(cc(CN5CCC(CN6CC(C7CN(c8ccc9c(c8)C(=O)N(C8CCC(=O)NC8=O)C9=O)C7)C6)CC5)cc4C(F)(F)F)C3=O)c2)COC1 (centres unmarked) [Example 83, 2-(2,6-dioxopiperidin-3-yl)-5-{1′-[(1-{[2-(3-{3-[(4-methyl-4H-1,2,4-triazol-3-yl)methyl]oxetan-3-yl}phenyl)-3-oxo-7-(trifluoromethyl)-2,3-dihydro-1H-isoindol-5-yl]methyl}piperidin-4-yl)methyl]-[3,3′-biazetidin]-1-yl}-2,3-dihydro-1H-isoindole-1,3-dione] | > 500 nM | – | > 500 nM | – | –
11 | Cn1cnnc1[C@]1(c2cccc(N3Cc4c(cc(CN5CCC[C@H](CN6CCN(C[C@H]7CC[C@@H](OC8CCN(c9ccc%10c(c9F)CN(C9CCC(=O)NC9=O)C%10=O)CC8)CC7)CC6)C5)cc4C(F)(F)F)C3=O)c2)C[C@@H](C)C1 (stereo partly drawn) [Example 157, 3-[4-fluoro-1-oxo-5-(4-{[(1r,4r)-4-[(4-{[(3S)-1-[(3-oxo-2-{3-[(1r,3s)-3-methyl-1-(4-methyl-4H-1,2,4-triazol-3-yl)cyclobutyl]phenyl}-7-(trifluoromethyl)-2,3-dihydro-1H-isoindol-5-yl)methyl]piperidin-3-yl]methyl}piperazin-1-yl)methyl]cyclohexyl]oxy}piperidin-1-yl)-2,3-dihydro-1H-isoindol-2-yl]piperidine-2,6-dione] | < 5 nM | 35 to 70% | < 5 nM | > 70% | –
12 | Cn1cnnc1CC1(c2cccc(N3Cc4c(cc(CN5CCC(CN6CCC(c7ccc8c(c7)C(=O)N(C7CCC(=O)NC7=O)C8=O)CC6)CC5)cc4C(F)(F)F)C3=O)c2)COC1 (centres unmarked) [Example 82, 2-(2,6-dioxopiperidin-3-yl)-5-{1-[(1-{[2-(3-{3-[(4-methyl-4H-1,2,4-triazol-3-yl)methyl]oxetan-3-yl}phenyl)-3-oxo-7-(trifluoromethyl)-2,3-dihydro-1H-isoindol-5-yl]methyl}piperidin-4-yl)methyl]piperidin-4-yl}-2,3-dihydro-1H-isoindole-1,3-dione] | > 500 nM | – | > 500 nM | – | –
